Reference: patent US20120129833A1, “CYCLIC KETOENOLS FOR THERAPY” (BAYER PHARMA AKTIENGESELLSCHAFT, priority 2010, published 2012)

What was measured:
[1] = target: T1, recombinant human ACC1 (acetyl-CoA carboxylase 1) (Homo sapiens, UniProt Q13085); assay: Human ACC1 enzyme assay (HTRF ADP detection); format: biochemical; settings: 50 μM ATP, 20 μM acetyl-CoA, 15 min pre-incubation, 20 min at 22° C.; read-out: ACC 1 IC50;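 further: ADP by-product quantified by competitive HTRF immunoassay with europium cryptate anti-ADP antibody and d2-labelled ADP, read after 1 h binding at 22 °C, enzyme near 2.5 ng/µl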
T1 construct: NM_198834, amino acids 39—end; FLAG (C); made in house; host or cells: baculovirus-transfected insect cells (Hi5)
Method: The basic principle of the assay is the measurement of adenosine diphosphate (ADP), which is formed as a by-product, by means of an HTRF®-based competitive immunoassay (HTRF=Homogeneous Time Resolved Fluorescence).
The amount of complex of d2-labelled ADP and europium cryptate-labelled anti-ADP antibody was then determined by measuring the resonance energy transfer of europium cryptate to d2.

[2] = target: T2, ACC2 (acetyl-CoA carboxylase 2) (Homo sapiens, UniProt O00763); assay: Human ACC2 enzyme assay (HTRF ADP detection); format: biochemical; settings: 20 μM acetyl-CoA, 15 min pre-incubation, 20 min at 22° C.; read-out: ACC 2 IC50
T2 construct: catalogue no; 50201, amino acids 39—end, expressed in baculovirus-transfected Sf9 insect cells; His (C); purchased BPS Bioscience (San Diego, Calif.) 50201; host or cells: baculovirus-transfected Sf9 insect cells
T2 sequence (O00763 39-2458 limits assumed): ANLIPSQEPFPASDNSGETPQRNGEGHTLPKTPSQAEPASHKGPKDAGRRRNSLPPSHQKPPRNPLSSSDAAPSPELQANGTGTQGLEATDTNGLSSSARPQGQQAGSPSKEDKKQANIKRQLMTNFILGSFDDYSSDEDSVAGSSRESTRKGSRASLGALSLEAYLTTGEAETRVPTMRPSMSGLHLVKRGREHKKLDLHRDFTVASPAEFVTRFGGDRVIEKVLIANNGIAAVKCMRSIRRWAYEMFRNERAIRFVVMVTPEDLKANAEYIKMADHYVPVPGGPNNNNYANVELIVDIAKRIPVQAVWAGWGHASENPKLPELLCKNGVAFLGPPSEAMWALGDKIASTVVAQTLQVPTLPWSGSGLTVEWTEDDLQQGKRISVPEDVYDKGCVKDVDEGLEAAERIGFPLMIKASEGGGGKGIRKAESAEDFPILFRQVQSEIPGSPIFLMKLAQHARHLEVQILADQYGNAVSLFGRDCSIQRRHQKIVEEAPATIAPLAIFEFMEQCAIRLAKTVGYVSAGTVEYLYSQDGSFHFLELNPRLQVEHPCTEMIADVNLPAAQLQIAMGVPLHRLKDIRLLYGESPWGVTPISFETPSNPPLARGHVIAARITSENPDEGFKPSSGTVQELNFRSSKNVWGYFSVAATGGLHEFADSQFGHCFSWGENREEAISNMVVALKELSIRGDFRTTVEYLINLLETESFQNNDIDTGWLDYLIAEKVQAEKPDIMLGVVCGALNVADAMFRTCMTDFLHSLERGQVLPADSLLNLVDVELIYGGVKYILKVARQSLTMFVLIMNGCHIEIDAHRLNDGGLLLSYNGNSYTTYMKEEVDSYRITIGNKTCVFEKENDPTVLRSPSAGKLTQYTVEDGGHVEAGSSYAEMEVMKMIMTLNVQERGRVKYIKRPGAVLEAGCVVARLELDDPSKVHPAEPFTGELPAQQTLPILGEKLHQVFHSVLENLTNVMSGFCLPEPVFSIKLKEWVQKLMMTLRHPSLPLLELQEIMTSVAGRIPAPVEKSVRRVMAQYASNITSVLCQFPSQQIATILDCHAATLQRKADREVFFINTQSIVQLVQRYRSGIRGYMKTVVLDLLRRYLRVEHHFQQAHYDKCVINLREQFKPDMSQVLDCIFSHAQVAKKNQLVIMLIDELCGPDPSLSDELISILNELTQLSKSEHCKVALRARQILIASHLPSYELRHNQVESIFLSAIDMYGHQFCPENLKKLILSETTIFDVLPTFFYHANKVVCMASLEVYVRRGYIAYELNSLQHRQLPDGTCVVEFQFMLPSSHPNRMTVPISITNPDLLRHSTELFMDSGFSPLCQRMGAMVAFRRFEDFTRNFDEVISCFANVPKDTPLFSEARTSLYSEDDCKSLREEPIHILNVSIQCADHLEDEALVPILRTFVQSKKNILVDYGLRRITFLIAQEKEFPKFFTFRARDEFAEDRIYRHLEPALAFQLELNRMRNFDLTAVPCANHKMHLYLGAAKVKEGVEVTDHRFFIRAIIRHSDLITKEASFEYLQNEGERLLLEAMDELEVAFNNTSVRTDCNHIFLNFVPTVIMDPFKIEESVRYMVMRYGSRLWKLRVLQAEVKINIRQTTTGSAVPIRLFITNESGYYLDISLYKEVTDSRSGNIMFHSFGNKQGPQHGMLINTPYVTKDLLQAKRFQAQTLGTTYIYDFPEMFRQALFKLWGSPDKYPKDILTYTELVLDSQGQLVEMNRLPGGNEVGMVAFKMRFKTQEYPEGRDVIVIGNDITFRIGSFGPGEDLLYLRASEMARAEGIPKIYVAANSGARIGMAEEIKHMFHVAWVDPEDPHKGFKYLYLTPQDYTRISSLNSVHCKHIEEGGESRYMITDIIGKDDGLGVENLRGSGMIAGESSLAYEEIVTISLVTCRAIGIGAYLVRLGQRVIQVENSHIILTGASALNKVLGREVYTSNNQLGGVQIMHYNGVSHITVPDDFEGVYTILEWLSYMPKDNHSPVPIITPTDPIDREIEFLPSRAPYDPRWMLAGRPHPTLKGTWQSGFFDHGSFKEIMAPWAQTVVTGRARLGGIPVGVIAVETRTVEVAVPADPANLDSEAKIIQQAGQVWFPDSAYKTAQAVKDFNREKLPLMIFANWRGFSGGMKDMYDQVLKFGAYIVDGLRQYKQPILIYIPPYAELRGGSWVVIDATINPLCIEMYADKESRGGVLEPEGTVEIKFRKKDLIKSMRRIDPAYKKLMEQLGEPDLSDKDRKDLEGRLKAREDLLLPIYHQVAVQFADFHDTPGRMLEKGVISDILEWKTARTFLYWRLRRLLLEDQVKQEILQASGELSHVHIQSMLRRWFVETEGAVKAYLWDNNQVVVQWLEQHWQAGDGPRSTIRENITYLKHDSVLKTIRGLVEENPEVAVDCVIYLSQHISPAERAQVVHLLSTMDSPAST

| IC50 [1] [nM] | IC50 [2] [nM] | SMILES |
| --- | --- | --- |
| 5380 | > 20000 | Cc1ccc(-c2ccc(Cl)cc2)cc1C1=C(O)CC(C)(C)N(C)C1=O [Example 9-4, 3-(4′-chloro-4-methylbiphenyl-3-yl)-4-hydroxy-1,6,6-trimethyl-5,6-dihydropyridin-2(1H)-one] |
| 158 | 652 | COCC1CCC2(CC1)OC(=O)C(c1c(C)ccc(-c3ccc(Cl)cc3)c1C)=C2O (stereo not shown) [Example 2-17, 3-(4′-chloro-2,4-dimethylbiphenyl-3-yl)-4-hydroxy-8-(methoxymethyl)-1-oxaspiro[4.5]dec-3-en-2-one] |
| 1060 | 4280 | Cc1ccc(-c2ccc(Cl)cc2)cc1C1=C(O)C2(CCCCC2)CNC1=O [Example 9-3, 4-(4′-chloro-4-methylbiphenyl-3-yl)-5-hydroxy-2-azaspiro[5.5]undec-4-en-3-one] |
| 1380 | 127 | Cc1cc(C)c(-c2ccc(Cl)cc2)cc1C1=C(O)C2(CCCCC2)CC1=O [Example 6-8, 3-(4′-chloro-4,6-dimethylbiphenyl-3-yl)-4-hydroxyspiro[4.5]dec-3-en-2-one] |
| 337 | 1690 | Cc1ccc(-c2ccc(Cl)cc2Cl)cc1C1=C(O)C2(CCCCC2)CC1=O [Example 6-2, 3-(2′,4′-dichloro-4-methylbiphenyl-3-yl)-4-hydroxyspiro[4.5]dec-3-en-2-one] |
| 863 | > 20000 | Cc1ccc(-c2ccc(F)cc2)cc1-c1c(O)c2ccc(F)cc2[nH]c1=O [Example 9-9, 7-fluoro-3-(4′-fluoro-4-methylbiphenyl-3-yl)-4-hydroxyquinolin-2(1H)-one] |
| 923 | 783 | CCCC1CCC2(CC1)CC(=O)C(c1cc(-c3ccc(Cl)cc3)ccc1C)=C2O (stereo not shown) [Example 6-6, 3-(4′-chloro-4-methylbiphenyl-3-yl)-4-hydroxy-8-propylspiro[4.5]dec-3-en-2-one] |
| 190 | 1500 | Cc1ccc(-c2ccc(Cl)cc2)c(C)c1C1=C(O)C2(CCCCC2)OC1=O [Example 2-4, 3-(4′-chloro-2,4-dimethylbiphenyl-3-yl)-4-hydroxy-1-oxaspiro[4.5]dec-3-en-2-one] |
| 587 | > 20000 | Cc1ccc(-c2ccc(Cl)cc2)cc1C1C(=O)N2CC(C)(F)CN2C1=O [Example 8-12, 2-(4′-chloro-4-methylbiphenyl-3-yl)-6-fluoro-6-methyldihydro-1H,5H-pyrazolo[1,2-a]pyrazole-1,3(2H)-dione] |
| 1020 | > 20000 | Cc1ccc(-c2ccc(Cl)cc2)cc1C1=C(O)C(C(C)(C)C)OC1=O (stereo not shown) [Example 2-35, 5-tert-butyl-3-(4′-chloro-4-methylbiphenyl-3-yl)-4-hydroxyfuran-2(5H)-one] |
| 357 | 1020 | Cc1cc(C)c(-c2ccc(Cl)cc2)cc1C1=C(O)C2(CCSCC2)OC1=O [Example 2-42, 3-(4′-chloro-4,6-dimethylbiphenyl-3-yl)-4-hydroxy-1-oxa-8-thiaspiro[4.5]dec-3-en-2-one] |
| 640 | > 20000 | CC1(F)CN2C(=O)C(c3cc(-c4ccc(Cl)cc4)ccc3Cl)C(=O)N2C1 [Example 8-13, 2-(4,4′-dichlorobiphenyl-3-yl)-6-fluoro-6-methyldihydro-1H,5H-pyrazolo[1,2-a]pyrazole-1,3(2H)-dione] |
| 321 | 789 | Cc1ccc(-c2ccc(Cl)cc2)cc1C1=C(O)C2(CCC3(CCCO3)CC2)OC1=O (stereo not shown) [Example 2-29, 3-(4′-chloro-4-methylbiphenyl-3-yl)-4-hydroxy-1,9-dioxadispiro[4.2.4.2]tetradec-3-en-2-one] |

More lines, now with the values behind:

| SMILES | IC50 [1] [nM] | IC50 [2] [nM] |
| --- | --- | --- |
| CCOC1CCC2(CC1)NC(=O)C(c1cc(-c3ccc(Cl)cc3)ccc1C)=C2O (stereo not shown) [Example 1-28, 3-(4′-chloro-4-methylbiphenyl-3-yl)-8-ethoxy-4-hydroxy-1-azaspiro[4.5]dec-3-en-2-one] | 443 | 192 |
| Cc1ccc(-c2ccc(F)cc2)cc1C1=C(O)C2(CCCCC2)OC1=O [Example 2-21, 3-(4′-fluoro-4-methylbiphenyl-3-yl)-4-hydroxy-1-oxaspiro[4.5]dec-3-en-2-one] | 400 | > 20000 |
| O=C1OC2(CCC3(CCCO3)CC2)C(O)=C1c1cc(-c2ccc(Cl)cc2)ccc1Cl (stereo not shown) [Example 2-27, 3-(4,4′-dichlorobiphenyl-3-yl)-4-hydroxy-1,9-dioxadispiro[4.2.4.2]tetradec-3-en-2-one] | 822 | 4150 |
| Cc1ccc(-c2ccc(Cl)cc2)cc1C1=C(O)C2(CCOCC2)NC1=O [Example 1-6, 3-(4′-chloro-4-methylbiphenyl-3-yl)-4-hydroxy-8-oxa-1-azaspiro[4.5]dec-3-en-2-one] | 300 | 5200 |
| Cc1ccc(-c2ccc(Cl)cc2)cc1C1=C(O)C2(CCC(OCC(F)(F)F)CC2)NC1=O (stereo not shown) [Example 1-33, 3-(4′-chloro-4-methylbiphenyl-3-yl)-4-hydroxy-8-(2,2,2-trifluoroethoxy)-1-azaspiro[4.5]dec-3-en-2-one] | 359 | 535 |
| Cc1ccc(-c2ccc(Cl)cc2)cc1C1=C(O)C2(CCCOC2)OC1=O (stereo not shown) [Example 2-9, 3-(4′-chloro-4-methylbiphenyl-3-yl)-4-hydroxy-1,7-dioxaspiro[4.5]dec-3-en-2-one] | 334 | > 20000 |
| Cc1ccc(-c2ccc(Cl)cc2)c(C)c1C1=C(O)C2(CCCOC2)NC1=O (stereo not shown) [Example 1-10, 3-(4′-chloro-2,4-dimethylbiphenyl-3-yl)-4-hydroxy-7-oxa-1-azaspiro[4.5]dec-3-en-2-one] | 550 | 6400 |
| Cc1ccc(-c2ccc(Cl)cc2)cc1C1=C(O)C2(CCCCCC2)NC1=O [Example 1-26, 3-(4′-chloro-4-methylbiphenyl-3-yl)-4-hydroxy-1-azaspiro[4.6]undec-3-en-2-one] | 540 | 1250 |
| Cc1cc(C)c(-c2ccc(Cl)cc2)c(C)c1C1=C(O)C2(CCCCC2)CC1=O [Example 6-9, 3-(4′-chloro-2,4,6-trimethylbiphenyl-3-yl)-4-hydroxyspiro[4.5]dec-3-en-2-one] | > 20000 | 387 |
| Cc1ccc(-c2ccc(Cl)cc2)cc1C1=C(O)C(C)(C2CCCCC2)OC1=O (stereo not shown) [Example 2-40, 3-(4′-chloro-4-methylbiphenyl-3-yl)-5-cyclohexyl-4-hydroxy-5-methylfuran-2(5H)-one] | 1220 | > 20000 |
| O=C1C(c2cc(-c3ccc(Cl)cc3)ccc2Cl)C(=O)N2CCCCN12 [Example 8-2, 2-(4,4′-dichlorobiphenyl-3-yl)tetrahydro-1H-pyrazolo[1,2-a]pyridazine-1,3(2H)-dione] | 891 | > 20000 |
| Cc1ccc(-c2ccc(Cl)cc2)cc1C1=C(O)C(C)N(C(C)C)C1=O (stereo not shown) [Example 1-19, 3-(4′-chloro-4-methylbiphenyl-3-yl)-4-hydroxy-5-methyl-1-(propan-2-yl)-1,5-dihydro-2H-pyrrol-2-one] | 874 | 6960 |
| Cc1ccc(-c2ccc(Cl)cc2)cc1C1=C(O)CN(C2CC2)C1=O [Example 1-18, 3-(4′-chloro-4-methylbiphenyl-3-yl)-1-cyclopropyl-4-hydroxy-1,5-dihydro-2H-pyrrol-2-one] | 797 | 7610 |
| COCCC1CCCC2(C1)NC(=O)C(c1c(C)ccc(-c3ccc(Cl)cc3)c1C)=C2O (stereo not shown) [Example 1-55, 3-(4′-chloro-2,4-dimethylbiphenyl-3-yl)-4-hydroxy-7-(2-methoxyethyl)-1-azaspiro[4.5]dec-3-en-2-one] | 918 | 465 |
| COC1CCC2(C1)NC(=O)C(c1c(C)ccc(-c3ccc(Cl)cc3)c1C)=C2O (stereo not shown) [Example 1-48, 3-(4′-chloro-2,4-dimethylbiphenyl-3-yl)-4-hydroxy-7-methoxy-1-azaspiro[4.4]non-3-en-2-one] | 1010 | 8600 |
| Cc1ccc(-c2ccc(Cl)cc2)cc1C1=C(O)C2(CCCCCC2)OC1=O [Example 2-38, 3-(4′-chloro-4-methylbiphenyl-3-yl)-4-hydroxy-1-oxaspiro[4.6]undec-3-en-2-one] | 416 | 3780 |
| O=C1C(c2cc(-c3ccc(Cl)cc3Cl)ccc2Cl)C(=O)N2CCOCCN12 [Example 8-9, 8-(2′,4,4′-trichlorobiphenyl-3-yl)tetrahydro-7H-pyrazolo[1,2-d][1,4,5]oxadiazepine-7,9(8H)-dione] | 457 | > 20000 |
| Cc1ccc(-c2ccc(F)c(F)c2)cc1C1=C(O)C2(CCOCC2)NC1=O [Example 1-37, 3-(3′,4′-difluoro-4-methylbiphenyl-3-yl)-4-hydroxy-8-oxa-1-azaspiro[4.5]dec-3-en-2-one] | 810 | > 20000 |
| Cc1ccc(-c2ccc(Cl)cc2)cc1C1=C(O)C2(CCCOC2)NC1=O (stereo not shown) [Example 1-5, 3-(4′-chloro-4-methylbiphenyl-3-yl)-4-hydroxy-7-oxa-1-azaspiro[4.5]dec-3-en-2-one] | 287 | 8240 |
| COC1CCC2(CC1)NC(=O)C(c1c(C)cc(C)c(-c3ccc(Cl)cc3)c1C)=C2O (stereo not shown) [Example 1-9, 3-(4′-chloro-2,4,6-trimethylbiphenyl-3-yl)-4-hydroxy-8-methoxy-1-azaspiro[4.5]dec-3-en-2-one] | 16600 | 626 |
| COC1CCCC2(C1)OC(=O)C(c1cc(-c3ccc(Cl)cc3)ccc1Cl)=C2O (stereo not shown) [Example 2-13, 3-(4,4′-dichlorobiphenyl-3-yl)-4-hydroxy-7-methoxy-1-oxaspiro[4.5]dec-3-en-2-one] | 816 | > 20000 |
| Cc1cc(C)c(-c2ccc(Cl)cc2)cc1C1=C(O)C2(CCCCCC2)OC1=O [Example 2-43, 3-(4′-chloro-4,6-dimethylbiphenyl-3-yl)-4-hydroxy-1-oxaspiro[4.6]undec-3-en-2-one] | 504 | 330 |
